According to PubChem BioAssay (NCI):
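Assay format: 96-well plates, 48-hour exposure. At the GI50, growth is halved. TGI is the concentration that stops growth completely.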

What was measured:
Assay in all cases: NCI anticancer screen, dose series, 48 h
T-47D breast = tested on: T-47D breast
SN12C renal = tested on: SN12C renal
NCI-H522 lung = tested on: NCI-H522 lung
SNB-75 CNS = tested on: SNB-75 CNS
OVCAR-4 ovarian = tested on: OVCAR-4 ovarian
U251 CNS = tested on: U251 CNS
PC-3 prostate = tested on: PC-3 prostate
SK-MEL-28 melanoma = tested on: SK-MEL-28 melanoma
KM12 colon = tested on: KM12 colon
HS 578T breast = tested on: HS 578T breast
A549 NSCLC = tested on: A549 NSCLC
MDA-MB-231 breast = tested on: MDA-MB-231 breast
HCC-2998 colon = tested on: HCC-2998 colon
SF-268 CNS = tested on: SF-268 CNS
MALME-3M melanoma = tested on: MALME-3M melanoma
NCI/ADR-RES ovarian = tested on: NCI/ADR-RES ovarian
SNB-19 CNS = tested on: SNB-19 CNS
MOLT-4 leukemia = tested on: MOLT-4 leukemia
786-0 renal = tested on: 786-0 renal
OVCAR-8 ovarian = tested on: OVCAR-8 ovarian
UACC-62 melanoma = tested on: UACC-62 melanoma
DU-145 prostate = tested on: DU-145 prostate
ACHN renal = tested on: ACHN renal
IGROV1 ovarian = tested on: IGROV1 ovarian
HOP-92 NSCLC = tested on: HOP-92 NSCLC
NCI-H23 lung = tested on: NCI-H23 lung
SK-MEL-5 melanoma = tested on: SK-MEL-5 melanoma
NCI-H460 lung = tested on: NCI-H460 lung
CAKI-1 renal = tested on: CAKI-1 renal
A498 renal = tested on: A498 renal
SF-295 CNS = tested on: SF-295 CNS
OVCAR-5 ovarian = tested on: OVCAR-5 ovarian
SF-539 CNS = tested on: SF-539 CNS
SW-620 colon = tested on: SW-620 colon
BT-549 breast = tested on: BT-549 breast
MCF7 breast = tested on: MCF7 breast
SK-OV-3 ovarian = tested on: SK-OV-3 ovarian
HL-60(TB) leukemia = tested on: HL-60(TB) leukemia
LOX IMVI melanoma = tested on: LOX IMVI melanoma
CCRF-CEM leukemia = tested on: CCRF-CEM leukemia
HOP-62 NSCLC = tested on: HOP-62 NSCLC
UACC-257 melanoma = tested on: UACC-257 melanoma
NCI-H226 lung = tested on: NCI-H226 lung
RPMI-8226 leukemia = tested on: RPMI-8226 leukemia
MDA-MB-435 = tested on: MDA-MB-435
HCT-116 colon = tested on: HCT-116 colon
HT29 colon = tested on: HT29 colon
UO-31 renal = tested on: UO-31 renal
M14 melanoma = tested on: M14 melanoma
RXF 393 renal = tested on: RXF 393 renal
TK-10 renal = tested on: TK-10 renal
COLO 205 colon = tested on: COLO 205 colon
HCT-15 colon = tested on: HCT-15 colon
K-562 leukemia = tested on: K-562 leukemia
SR leukemia = tested on: SR leukemia
OVCAR-3 ovarian = tested on: OVCAR-3 ovarian
SK-MEL-2 melanoma = tested on: SK-MEL-2 melanoma

SMILES: CCOC(=O)Nc1nc2ccc(OCC)cc2s1
- GI50 (T-47D breast): 28.8 µM
- TGI (T-47D breast): > 100 µM
- GI50 (SN12C renal): > 93.4 µM
- TGI (SN12C renal): > 100 µM
- GI50 (NCI-H522 lung): 6.49 µM
- TGI (NCI-H522 lung): > 100 µM
- GI50 (SNB-75 CNS): 22.7 µM
- TGI (SNB-75 CNS): > 100 µM
- GI50 (OVCAR-4 ovarian): > 82.5 µM
- TGI (OVCAR-4 ovarian): > 100 µM
- GI50 (U251 CNS): 25.5 µM
- TGI (U251 CNS): > 100 µM
- GI50 (PC-3 prostate): > 100 µM
- TGI (PC-3 prostate): > 100 µM
- GI50 (SK-MEL-28 melanoma): > 60.7 µM
- TGI (SK-MEL-28 melanoma): > 100 µM
- GI50 (KM12 colon): 3.31 µM
- TGI (KM12 colon): > 100 µM
- GI50 (HS 578T breast): 56.7 µM
- TGI (HS 578T breast): > 100 µM
- GI50 (A549 NSCLC): 7.2 µM
- TGI (A549 NSCLC): > 100 µM
- GI50 (MDA-MB-231 breast): > 100 µM
- TGI (MDA-MB-231 breast): > 100 µM
- GI50 (HCC-2998 colon): 31.6 µM
- TGI (HCC-2998 colon): > 100 µM
- GI50 (SF-268 CNS): 84.6 µM
- TGI (SF-268 CNS): > 100 µM
- GI50 (MALME-3M melanoma): > 100 µM
- TGI (MALME-3M melanoma): > 100 µM
- GI50 (NCI/ADR-RES ovarian): 7.39 µM
- TGI (NCI/ADR-RES ovarian): > 100 µM
- GI50 (SNB-19 CNS): > 100 µM
- TGI (SNB-19 CNS): > 100 µM
- GI50 (MOLT-4 leukemia): 59.4 µM
- TGI (MOLT-4 leukemia): > 100 µM
- GI50 (786-0 renal): > 100 µM
- TGI (786-0 renal): > 100 µM
- GI50 (OVCAR-8 ovarian): 47.7 µM
- TGI (OVCAR-8 ovarian): > 100 µM
- GI50 (UACC-62 melanoma): 13.4 µM
- TGI (UACC-62 melanoma): > 100 µM
- GI50 (DU-145 prostate): > 100 µM
- TGI (DU-145 prostate): > 100 µM
- GI50 (ACHN renal): > 100 µM
- TGI (ACHN renal): > 100 µM
- GI50 (IGROV1 ovarian): 31.7 µM
- TGI (IGROV1 ovarian): > 100 µM
- GI50 (HOP-92 NSCLC): > 62.7 µM
- TGI (HOP-92 NSCLC): > 100 µM
- GI50 (NCI-H23 lung): > 100 µM
- TGI (NCI-H23 lung): > 100 µM
- GI50 (SK-MEL-5 melanoma): 5.56 µM
- TGI (SK-MEL-5 melanoma): > 100 µM
- GI50 (NCI-H460 lung): 6.28 µM
- TGI (NCI-H460 lung): > 100 µM
- GI50 (CAKI-1 renal): > 100 µM
- TGI (CAKI-1 renal): > 100 µM
- GI50 (A498 renal): > 100 µM
- TGI (A498 renal): > 100 µM
- GI50 (SF-295 CNS): > 100 µM
- TGI (SF-295 CNS): > 100 µM
- GI50 (OVCAR-5 ovarian): > 100 µM
- TGI (OVCAR-5 ovarian): > 100 µM
- GI50 (SF-539 CNS): 20.2 µM
- TGI (SF-539 CNS): > 100 µM
- GI50 (SW-620 colon): 4.25 µM
- TGI (SW-620 colon): > 100 µM
- GI50 (BT-549 breast): > 100 µM
- TGI (BT-549 breast): > 100 µM
- GI50 (MCF7 breast): 4.14 µM
- TGI (MCF7 breast): > 100 µM
- GI50 (SK-OV-3 ovarian): > 100 µM
- TGI (SK-OV-3 ovarian): > 100 µM
- GI50 (HL-60(TB) leukemia): 7.56 µM
- TGI (HL-60(TB) leukemia): > 100 µM
- GI50 (LOX IMVI melanoma): 41.7 µM
- TGI (LOX IMVI melanoma): > 100 µM
- GI50 (CCRF-CEM leukemia): > 100 µM
- TGI (CCRF-CEM leukemia): > 100 µM
- GI50 (HOP-62 NSCLC): 39.4 µM
- TGI (HOP-62 NSCLC): > 100 µM
- GI50 (UACC-257 melanoma): > 100 µM
- TGI (UACC-257 melanoma): > 100 µM
- GI50 (NCI-H226 lung): > 100 µM
- TGI (NCI-H226 lung): > 100 µM
- GI50 (RPMI-8226 leukemia): 27.1 µM
- TGI (RPMI-8226 leukemia): > 100 µM
- GI50 (MDA-MB-435): 0.773 µM
- TGI (MDA-MB-435): 3.71 µM
- GI50 (HCT-116 colon): 6.42 µM
- TGI (HCT-116 colon): > 100 µM
- GI50 (HT29 colon): 3.98 µM
- TGI (HT29 colon): > 100 µM
- GI50 (UO-31 renal): > 100 µM
- TGI (UO-31 renal): > 100 µM
- GI50 (M14 melanoma): 6.84 µM
- TGI (M14 melanoma): > 100 µM
- GI50 (RXF 393 renal): > 53.4 µM
- TGI (RXF 393 renal): > 100 µM
- GI50 (TK-10 renal): > 100 µM
- TGI (TK-10 renal): > 100 µM
- GI50 (COLO 205 colon): 10.4 µM
- TGI (COLO 205 colon): > 100 µM
- GI50 (HCT-15 colon): 5.12 µM
- TGI (HCT-15 colon): > 100 µM
- GI50 (K-562 leukemia): 3.17 µM
- TGI (K-562 leukemia): > 100 µM
- GI50 (SR leukemia): 1.12 µM
- TGI (SR leukemia): > 100 µM
- GI50 (OVCAR-3 ovarian): > 41.6 µM
- TGI (OVCAR-3 ovarian): > 100 µM
- GI50 (SK-MEL-2 melanoma): 40.3 µM
- TGI (SK-MEL-2 melanoma): > 100 µM
